The test concerns the target T1, EthABDB2 (EthAB2 + EthBB2 + EthDB2) (Rhodococcus sp. B2, UniProt A0A8A6W4L4).
T1 construct: gene ethB; 43 kDa (EthA), 44 kDa (EthB), 10 kDa (EthD); mixed in vitro; EthB has ten residue differences from EthB of strain T3-1; with Ferredoxin reductase EthA; EthD protein (10 kDa; unknown function, acts as ferredoxin)
Kind of test: reconstituted enzyme assay, HPLC substrate loss; GC-MS of product CMEPA. The note with it: 0.5 mM substrate; 1 mM NADH, 0.5 mM Fe2+, 1 mM MgCl2, 20 mM Tris-HCl pH 7.5, 30 °C; N-dealkoxymethylation. The test is classed as biochemical.

The structures appear in SMILES notation.

T1 sequence (A0A8A6W625 entry or part of it): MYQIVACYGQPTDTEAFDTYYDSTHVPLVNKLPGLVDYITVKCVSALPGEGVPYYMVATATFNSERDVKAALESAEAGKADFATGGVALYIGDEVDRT
T1 sequence (A0A8A6W4L4 entry or part of it): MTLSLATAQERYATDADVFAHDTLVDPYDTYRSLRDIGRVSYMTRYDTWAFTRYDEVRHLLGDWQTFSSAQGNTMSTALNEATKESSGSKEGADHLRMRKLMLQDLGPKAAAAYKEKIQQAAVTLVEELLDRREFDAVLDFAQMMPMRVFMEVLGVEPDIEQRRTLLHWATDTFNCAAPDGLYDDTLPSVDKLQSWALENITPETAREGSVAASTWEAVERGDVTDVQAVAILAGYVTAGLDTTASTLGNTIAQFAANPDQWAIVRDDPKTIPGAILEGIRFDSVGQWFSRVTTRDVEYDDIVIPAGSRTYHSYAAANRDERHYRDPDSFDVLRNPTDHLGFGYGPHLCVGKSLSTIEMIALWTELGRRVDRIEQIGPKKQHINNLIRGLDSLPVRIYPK
T1 sequence (A0A8A6W576 entry or part of it, further chain): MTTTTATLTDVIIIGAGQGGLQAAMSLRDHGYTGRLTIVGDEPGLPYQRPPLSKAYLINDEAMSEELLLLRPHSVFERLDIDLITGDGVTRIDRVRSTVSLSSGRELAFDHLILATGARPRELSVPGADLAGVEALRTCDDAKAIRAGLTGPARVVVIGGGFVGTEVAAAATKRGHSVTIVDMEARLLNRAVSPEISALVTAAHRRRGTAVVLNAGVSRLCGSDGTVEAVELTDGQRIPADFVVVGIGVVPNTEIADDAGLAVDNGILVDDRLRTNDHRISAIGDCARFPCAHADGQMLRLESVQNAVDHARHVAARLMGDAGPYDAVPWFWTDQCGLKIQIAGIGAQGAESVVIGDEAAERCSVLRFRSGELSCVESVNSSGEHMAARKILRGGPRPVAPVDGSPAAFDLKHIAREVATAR

Turning to `CCc1cccc(C)c1N(COC(C)C)C(=O)CCl` [propisochlor], the “reconstituted enzyme assay, HPLC substrate loss; GC-MS of product CMEPA” value is “EthABDB2 performed N-dealkoxymethylation to acetochlor, alachlor, propisochlor and butachlor, O-dealkylation to pretilachlor”.
